{"source": "ChEMBL document CHEMBL1201862", "about": "“PubChem BioAssay data set” (2004)", "key": {"[1]": {"target": "Beta Lactamase (Pseudomonas aeruginosa, UniProt Q932Y6)", "sequence (Q932Y6 whole entry)": "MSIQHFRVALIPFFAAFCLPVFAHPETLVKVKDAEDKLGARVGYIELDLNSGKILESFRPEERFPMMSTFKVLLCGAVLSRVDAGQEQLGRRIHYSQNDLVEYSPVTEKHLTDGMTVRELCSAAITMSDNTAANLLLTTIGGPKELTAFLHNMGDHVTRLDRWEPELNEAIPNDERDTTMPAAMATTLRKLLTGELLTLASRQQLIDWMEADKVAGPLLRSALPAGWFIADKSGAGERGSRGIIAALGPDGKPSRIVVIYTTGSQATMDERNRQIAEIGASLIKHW", "assay": "BLA reporter interference, concentration series – BLA reporter cells, FRET fluorescence, artefact control for TLR9-MyD88 binding inhibitor project, dose response (AID 588341);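 note: cell based assay in CHO-K1 cells stably expressing beta-lactamase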", "assay_type": "cell-based"}, "[2]": {"test_system": "CHO", "assay": "CHO cell viability loss, potency – luminescence, cytotoxicity control for TLR9-MyD88 binding inhibitor project, dose response (AID 588339);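 note: CHO cells stably coexpressing TLR9 and MyD88 fusions from primary screen; compound exposure lasted 48 hours before viability readout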", "assay_type": "functional, cell-based, hamster", "details": "Cricetulus griseus"}, "[3]": {"target": "T1, Sentrin-specific protease 7 (Homo sapiens, UniProt Q9BQF6)", "T1 sequence (Q9BQF6 whole entry)": "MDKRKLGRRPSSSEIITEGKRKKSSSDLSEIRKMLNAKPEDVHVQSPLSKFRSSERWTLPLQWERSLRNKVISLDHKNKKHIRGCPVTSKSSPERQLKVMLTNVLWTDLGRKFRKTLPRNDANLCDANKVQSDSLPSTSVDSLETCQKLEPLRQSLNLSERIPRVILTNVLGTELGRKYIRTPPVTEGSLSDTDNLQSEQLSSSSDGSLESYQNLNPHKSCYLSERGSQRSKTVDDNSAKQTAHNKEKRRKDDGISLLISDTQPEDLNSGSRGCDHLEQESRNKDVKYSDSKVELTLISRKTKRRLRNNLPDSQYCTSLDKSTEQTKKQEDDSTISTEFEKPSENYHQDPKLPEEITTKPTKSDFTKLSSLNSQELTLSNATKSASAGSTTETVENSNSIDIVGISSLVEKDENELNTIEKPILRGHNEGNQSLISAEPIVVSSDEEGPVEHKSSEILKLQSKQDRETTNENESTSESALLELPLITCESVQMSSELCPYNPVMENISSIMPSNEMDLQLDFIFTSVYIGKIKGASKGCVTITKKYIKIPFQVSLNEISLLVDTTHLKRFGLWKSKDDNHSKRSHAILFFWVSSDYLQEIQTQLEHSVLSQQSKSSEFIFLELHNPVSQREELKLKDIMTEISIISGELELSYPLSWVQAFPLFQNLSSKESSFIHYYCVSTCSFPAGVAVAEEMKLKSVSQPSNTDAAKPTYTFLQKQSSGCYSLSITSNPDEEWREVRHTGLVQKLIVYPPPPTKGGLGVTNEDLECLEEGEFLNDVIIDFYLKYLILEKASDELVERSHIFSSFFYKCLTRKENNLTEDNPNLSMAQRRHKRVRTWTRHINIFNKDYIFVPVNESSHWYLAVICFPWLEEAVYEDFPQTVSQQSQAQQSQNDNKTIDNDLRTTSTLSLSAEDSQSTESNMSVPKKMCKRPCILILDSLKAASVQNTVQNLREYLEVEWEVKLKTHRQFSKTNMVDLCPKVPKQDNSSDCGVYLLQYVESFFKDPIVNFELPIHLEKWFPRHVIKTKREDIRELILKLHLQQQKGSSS", "assay": "inhibition of human SENP7 cleavage activity – biochemical, luminescence, SAR follow-up (AID 504497)", "assay_type": "functional"}, "[4]": {"target": "T2, Sentrin-specific protease 6 (Homo sapiens, UniProt Q9GZR1)", "T2 sequence (Q9GZR1 whole entry)": "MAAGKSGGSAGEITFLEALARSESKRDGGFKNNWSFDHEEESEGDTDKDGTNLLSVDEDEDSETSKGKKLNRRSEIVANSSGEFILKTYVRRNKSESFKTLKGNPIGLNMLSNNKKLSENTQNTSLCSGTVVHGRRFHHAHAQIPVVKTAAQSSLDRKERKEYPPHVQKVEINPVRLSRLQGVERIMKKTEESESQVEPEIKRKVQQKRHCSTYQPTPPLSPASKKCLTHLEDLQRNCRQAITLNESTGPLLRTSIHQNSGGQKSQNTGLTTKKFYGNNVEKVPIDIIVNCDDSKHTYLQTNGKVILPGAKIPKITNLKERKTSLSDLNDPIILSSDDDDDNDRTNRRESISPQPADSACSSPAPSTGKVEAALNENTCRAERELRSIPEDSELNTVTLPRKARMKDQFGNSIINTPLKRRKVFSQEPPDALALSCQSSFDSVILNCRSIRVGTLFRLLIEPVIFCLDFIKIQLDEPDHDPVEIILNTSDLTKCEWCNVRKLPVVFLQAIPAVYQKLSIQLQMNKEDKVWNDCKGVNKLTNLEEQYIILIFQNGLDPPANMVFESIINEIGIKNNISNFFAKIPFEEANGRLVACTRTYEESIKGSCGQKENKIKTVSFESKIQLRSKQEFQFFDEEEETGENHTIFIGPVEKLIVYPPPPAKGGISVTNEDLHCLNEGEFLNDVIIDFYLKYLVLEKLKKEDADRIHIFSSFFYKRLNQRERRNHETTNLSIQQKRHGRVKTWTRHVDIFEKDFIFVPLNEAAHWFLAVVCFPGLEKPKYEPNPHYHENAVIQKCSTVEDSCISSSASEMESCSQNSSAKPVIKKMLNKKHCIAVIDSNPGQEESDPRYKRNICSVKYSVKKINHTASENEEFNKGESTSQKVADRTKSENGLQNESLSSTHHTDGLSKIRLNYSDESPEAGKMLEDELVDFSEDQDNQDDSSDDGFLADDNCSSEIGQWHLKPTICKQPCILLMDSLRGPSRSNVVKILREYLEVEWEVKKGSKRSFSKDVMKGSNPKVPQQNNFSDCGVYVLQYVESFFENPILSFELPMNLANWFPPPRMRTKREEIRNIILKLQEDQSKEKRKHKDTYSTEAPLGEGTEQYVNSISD", "assay": "inhibition of human SENP6 catalytic domain – biochemical, luminescence, set 2, SAR follow-up (AID 588598)", "assay_type": "functional"}, "[5]": {"target": "T3, Sentrin-specific protease 8 (Homo sapiens, UniProt Q96LD8)", "T3 sequence (Q96LD8 whole entry)": "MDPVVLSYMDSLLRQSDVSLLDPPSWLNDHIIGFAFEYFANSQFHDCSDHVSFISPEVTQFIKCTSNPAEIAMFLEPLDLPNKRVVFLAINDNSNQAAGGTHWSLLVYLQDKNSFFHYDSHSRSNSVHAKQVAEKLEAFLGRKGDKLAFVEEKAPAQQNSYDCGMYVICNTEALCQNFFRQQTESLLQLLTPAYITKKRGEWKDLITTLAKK", "assay": "inhibition of sentrin protease 8 – biochemical, luminescence, set 2, SAR follow-up (AID 588601)", "assay_type": "functional"}, "[6]": {"target": "T4, Caspase-3 (Homo sapiens, UniProt P42574)", "T4 sequence (P42574 whole entry)": "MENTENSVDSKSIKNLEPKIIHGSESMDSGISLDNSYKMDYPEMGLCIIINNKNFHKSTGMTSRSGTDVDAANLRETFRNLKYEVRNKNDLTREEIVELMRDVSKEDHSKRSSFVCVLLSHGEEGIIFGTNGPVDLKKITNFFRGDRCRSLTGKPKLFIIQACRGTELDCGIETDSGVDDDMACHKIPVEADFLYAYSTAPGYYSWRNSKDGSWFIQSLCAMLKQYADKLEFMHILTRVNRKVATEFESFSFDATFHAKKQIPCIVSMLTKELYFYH", "assay": "inhibition of recombinant caspase-3 activity – biochemical, luminescence, set 2, selectivity assay for SENP protease inhibitor project, SAR follow-up (AID 588599)", "assay_type": "functional"}, "[7]": {"target": "T2, Sentrin-specific protease 6", "assay": "SAR Analysis of small molecule inhibitors of Sentrin-specific protease 6 (SENP6) using a Luminescent assay. [Related pubchem assays (depositor defined):AID2582, AID2599]", "assay_type": "functional"}, "[8]": {"target": "T1, Sentrin-specific protease 7", "assay": "inhibition of human SENP7 cleavage activity – biochemical, luminescence, set 2, SAR follow-up (AID 588600)", "assay_type": "functional"}, "[9]": {"target": "T3, Sentrin-specific protease 8", "assay": "inhibition of human SENP8 cleavage activity – biochemical, luminescence, SAR follow-up (AID 504501)", "assay_type": "functional"}, "[10]": {"target": "T4, Caspase-3", "assay": "SAR Analysis of small molecule inhibitors of Sentrin-specific proteases (SENPs) using a Caspase-3 Selectivity assay. [Related pubchem assays (depositor defined):AID2540, AID2599, AID434973, AID489001]", "assay_type": "functional"}, "[11]": {"assay": "Luminescence Cell-Based Dose Response HTS to Identify Inhibitors of 5'UTR Stem-Loop Driven Prion Protein mRNA Translation in H4 Neuroglioblastoma Cells. [Related pubchem assays: 1827 (Project Summary), 1813 (Primary HTS)]", "assay_type": "functional"}, "[12]": {"assay": "NIH3T3 cell viability loss – ATP luminescence, mouse fibroblasts, counter-screen, dose response (AID 2010);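 note: cells exposed to compound for about 90 hours before reading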", "assay_type": "functional, cell-based"}, "[13]": {"assay": "reduction of Shn3 3'UTR-driven luciferase in osteoblasts – cell-based, Clone20 osteoblasts, firefly luciferase, cherry-picked, dose response (AID 624132)", "assay_type": "functional"}, "[14]": {"test_system": "Streptococcus", "assay": "GAS UMAA2166 growth inhibition – luminescence, BacTiterGlo, counter-screen for streptokinase expression inhibitor project, dose response (AID 1915)", "assay_type": "functional, organism-based"}, "[15]": {"assay": "non-specific 3'UTR reporter inhibition in Clone20-Shn3RL – cell-based, Renilla luciferase, cherry-picked, counter-screen for Shn3 inhibitor project, dose response (AID 624133)", "assay_type": "functional"}, "[16]": {"test_system": "Streptococcus sp. 'group A'", "assay": "Streptococcus pyogenes SK(-)GAS viability under kanamycin – luminescence, BacTiterGlo, confirmation, counter-screen for streptokinase expression inhibitor project, dose response (AID 1900)", "assay_type": "functional, organism-based"}, "[17]": {"assay": "alpha-synuclein stem-loop luciferase translation blockers – H4 neuroglioma cells, luminescence, confirmation (AID 1988)", "assay_type": "functional, cell-based"}, "[18]": {"target": "Latent membrane protein 1 (Human herpesvirus 4 (strain B95-8), UniProt P03230)", "sequence (P03230 whole entry)": "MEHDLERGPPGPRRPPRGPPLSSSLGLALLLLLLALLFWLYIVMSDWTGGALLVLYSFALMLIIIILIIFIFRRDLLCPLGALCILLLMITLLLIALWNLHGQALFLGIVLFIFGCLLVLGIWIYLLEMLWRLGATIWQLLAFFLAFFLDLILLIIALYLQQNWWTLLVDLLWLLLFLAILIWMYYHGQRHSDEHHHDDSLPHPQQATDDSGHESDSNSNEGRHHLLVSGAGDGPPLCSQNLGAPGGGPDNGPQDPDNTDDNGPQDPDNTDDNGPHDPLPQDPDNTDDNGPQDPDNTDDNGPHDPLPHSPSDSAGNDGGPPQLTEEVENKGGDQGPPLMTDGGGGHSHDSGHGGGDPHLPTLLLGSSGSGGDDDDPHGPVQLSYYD", "assay": "LMP1 TES1 pathway selectivity over dsRED control – imaging, HEK293T, dual-color eGFP/dsRED, cherry-picks, selectivity assay for LMP1 NF-kB inhibitor project, dose response (AID 588398)", "assay_type": "functional, cell-based"}, "[19]": {"test_system": "INS1", "assay": "INS-1E survival protection against cytokine death – cell-based, luminescence, retest, dose response (AID 449756);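 note: cell death triggered by IL-1 beta plus TNF-alpha plus IFN-gamma mixture; protective hits raise ATP signal compared with cytokine alone wells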", "assay_type": "functional", "details": "Rattus norvegicus"}, "[20]": {"assay": "microbe, parasite or virus in culture", "assay_type": "functional", "details": "Mycobacterium tuberculosis"}, "[21]": {"assay": "luciferase reporter signal suppression in cells – H4 neuroglioma cells, luminescence, dose response (AID 1990)", "assay_type": "functional, cell-based"}, "[22]": {"test_system": "HEK293", "assay": "EBV LMP1 TES2 canonical NF-kB signalling blockers – cell-based, HEK293, luciferase, cherry-pick, dose response (AID 588343)", "assay_type": "functional", "details": "Homo sapiens"}, "[23]": {"assay": "loss of viability in HepG2 cells – cell-based, CellTiter-Glo, cherry-picked, cytotoxicity control for Shn3 inhibitor project, dose response (AID 624134)", "assay_type": "functional"}, "[24]": {"assay": "Luminescence Cell-Based Dose Retest to Confirm Inhibitors of Cancer Stem Cells. [Related pubchem assays (depositor defined):AID2717, AID2721]", "assay_type": "functional", "details": "Homo sapiens"}, "[25]": {"assay": "Trypanosoma cruzi growth suppression in host cells – NIH3T3 host cells, beta-gal luminescence, confirmation (AID 2044);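 note: luminescent beta-galactosidase reporter signal from transgenic T. cruzi replicating inside host cells; inhibitors lower the luminescence signal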", "assay_type": "functional, cell-based"}}, "note": "Active and inactive are the calls of the source.", "data": [{"smiles": "O=C1c2cccc3c(N4CCCCC4)ccc(c23)C(=O)N1c1ccccc1O", "values": [{"measurement": "IC50", "setting": "[1]", "value": "7.63 µM (active)"}, {"measurement": "IC50", "setting": "[2]", "value": "> 49.8 µM (inactive)"}]}, {"smiles": "Fc1ccc(/C=C/c2noc(-c3c(F)cccc3F)n2)cc1", "values": [{"measurement": "IC50", "setting": "[3]", "value": "11 µM (active)"}, {"measurement": "IC50", "setting": "[4]", "value": "4.72 µM (active)"}, {"measurement": "IC50", "setting": "[5]", "value": "4.97 µM (active)"}, {"measurement": "IC50", "setting": "[6]", "value": "30.8 µM (active)"}, {"measurement": "IC50", "setting": "[7]", "value": "> 99 µM (inactive)"}, {"measurement": "IC50", "setting": "[8]", "value": "5.86 µM (active)"}, {"measurement": "IC50", "setting": "[9]", "value": "> 99 µM (inactive)"}, {"measurement": "IC50", "setting": "[10]", "value": "34 µM (active)"}]}, {"smiles": "CCOC(=O)c1cnc(-n2nc(C)cc2C)nc1NNc1cc(C)nc(-c2ccccc2)n1", "values": [{"measurement": "EC50", "setting": "[11]", "value": "2.8 µM (active)"}, {"measurement": "EC50", "setting": "[12]", "value": "56.7 µM (active)"}, {"measurement": "AC50", "setting": "[13]", "value": "3.31 µM (active)"}, {"measurement": "EC50", "setting": "[14]", "value": "1.02 µM (active)"}, {"measurement": "AC50", "setting": "[15]", "value": "2.29 µM (active)"}, {"measurement": "EC50", "setting": "[16]", "value": "0.344 µM (active)"}, {"measurement": "EC50", "setting": "[17]", "value": "6.73 µM (active)"}, {"measurement": "AC50", "setting": "[18]", "value": "81.7 µM (active)"}, {"measurement": "AC50", "setting": "[19]", "value": "2.14 µM (active)"}, {"measurement": "CC50", "setting": "[20]", "value": "7.39 µM (active)"}, {"measurement": "EC50", "setting": "[21]", "value": "0.584 µM (active)"}, {"measurement": "AC50", "setting": "[22]", "value": "3.4 µM (active)"}, {"measurement": "AC50", "setting": "[23]", "value": "60 µM (active)"}, {"measurement": "AC50", "setting": "[24]", "value": "1.74 µM (active)"}, {"measurement": "EC50", "setting": "[25]", "value": "0.355 µM (active)"}]}]}
